Data on 1 compound can be found in patent publication US20150299219A1, “BICYCLIC PYRAZOLONE COMPOUNDS AND METHODS OF USE” (Calitor Sciences, LLC, priority 2014, published 2015).

Structures are written as SMILES.

Series [1] can be described thus: Compound stability in human liver microsomes. It is filed as in vitro ADME. Here is the method: (§1) Human or rat liver microsomes incubations were conducted in duplicate in polypropylene tubes. The typical incubation mixtures consisted of human or rat liver microsomes (0.5 mg protein/mL), compounds of interest (5 μM) and NADPH (1.0 mM) in a total volume of 200 μL potassium phosphate buffer (PBS, 100 mM, pH 7.4). Compounds were dissolved in DMSO and diluted with PBS such that the final concentration of DMSO was 0.05%. The enzymatic reactions were commenced with the addition of protein after a 3-min preincubation and incubated in a water bath open to the air at 37° C. Reactions were terminated at various time points (0, 5, 10, 15, 30, 60 min) by adding equal volume of ice-cold acetonitrile. The samples were stored at −80° C. until LC/MS/MS assays.
(§2) The concentrations of compounds in the incubation mixtures of human or rat liver microsomes were determined by a LC/MS/MS method. The ranges of the linearity in the concentration range were determined for each tested compounds.
(§3) A parallel incubation was performed using denatured microsomes as the negative control, and reactions were terminated at various time points (0, 15, 60 min) after incubation at 37° C.
(§4) Dextromethorphan (70 μM) was selected as the positive control, and reactions were terminated at various time points (0, 5, 10, 15, 30, 60 min) after incubation at 37° C. Both positive and negative control samples were included in each assay to ensure the integrity of the microsomal incubation system.
(§5) Alternatively, the stability of some of the compounds disclosed herein in human (or rat) liver microsomes were also conducted in the following protocol. The incubations were conducted in duplicate in polypropylene tubes. The typical incubation mixtures consisted of liver microsomes (final concentration: 0.5 mg protein/mL), compounds (final concentration: 1.5 μM) in a total volume of 30 μL K-buffer (contain 1.0 mM EDTA, 100 mM, pH7.4). Compounds were dissolved in DMSO and diluted with K-buffer such that the final concentration of DMSO was 0.2%. The enzymatic reactions were commenced with the addition of 15 μL of NADPH (final concentration: 2 mM) after 10 min preincubation and incubated in a 37° C. incubator. Reactions were terminated at various time points (0, 15, 30, 60 min) by adding 135 μL acetonitrile (contain IS). Protein is removed by centrifugation with 4000 rpm, 10 min. Supernatant was collected for LCMS/MS analysis
(§6) In the above protocol, ketanserin (1 μM) was selected as the positive control, and reactions were terminated at various time points (0, 15, 30, 60 min) after incubation at 37° C. The positive control sample was included in each assay to ensure the integrity of the microsomal incubation system.
(§7) The concentrations of compounds in human or rat liver microsome incubations were plotted as a percentage of the relevant zero time point control for each reaction. The in vivo CLint were extrapolated (ref: Naritomi, Y.; Terashita, S.; Kimura, S.; Suzuki, A.; Kagayama, A.; and Sugiyama, Y.; Prediction of human hepatic clearance from in vivo animal experiments and in vitro metabolic studies with liver microsomes from animals and humans. Drug Metab. Dispos., 2001, 29: 1316-1324).
(Liver microsomes are a subcellular fraction often used to study metabolism.)

The nature of series [2]: Pharmacokinetic profiles in rats. It is filed as in vivo. As to conditions: rat, plasma. Here is the method: The LC/MS/MS system used in the analysis consists of an Agilent 1200 Series vacuum degasser, binary pump, well-plate autosampler, thermostatted column compartment, the Agilent G6430 Triple Quadrupole Mass Spectrometer with an electrosprayionization (ESI) source. Quantitative analysis was carried out using MRM mode. The parameters for MRM transitions are in the Table A.
An Agilent XDB-C18, 2.1×30 mm, 3.5 μM column was used for the analysis. 5 μL of the samples were injected. Analysis condition: The mobile phase was 0.1% formic acid in water (A) and 0.1% formic acid in methanol (B). The flow rate was 0.4 mL/min. And the gradient of Mobile phase was in the Table B.
Alternatively, an Agilent 6330 series LC/MS/MS spectrometer equipped with G1312A binary pumps, a G1367A autosampler and a G1314C UV detector were used in the analysis. An ESI source was used on the LC/MS/MS spectrometer. The analysis was done in positive ion mode as appropriate and the MRM transition for each analyte was optimized using standard solution. A Capcell MP-C18 100×4.6 mm I.D., […] column (Phenomenex, Torrance, Calif., USA) was used during the analysis. The mobile phase was 5 mM ammonia acetate, 0.1% MeOH in water (A): 5 mM ammonia acetate, 0.1% MeOH in acetonitrile (B) (70/30, v/v). The flow rate was 0.6 mL/min. Column was maintained at ambient temperature. 20 μL of the samples were injected.
The compounds disclosed herein are assessed in pharmacokinetic studies in mice, rats, dogs or monkeys. The compounds are administered as a water solution, 2% HPMC+1% TWEEN®80 in water solution, 5% DMSO+5% solutol in saline, 4% MC suspension or capsule. For the intravenous administration, the animals are generally given at 1 or 2 mg/kg dose. For the oral (p.o.) dosing, mice and rats are generally given 5 or 10 mg/kg dose, and dogs and monkeys are generally given 10 mg/kg dose. The blood samples (0.3 mL) are drawn at 0.25, 0.5, 1.0, 2.0, 3.0, 4.0, 6.0, 8.0, 12 and 24 h time points or 0.083, 0.25, 0.5, 1.0, 2.0, 4.0, 6.0, 8.0 and 24 h time points and centrifuged at 3,000 or 4000 rpm for 2 to 10 min. The plasma solutions are collected, and stored at −20° C. or −70° C. until analyzed by LC/MS/MS as described above.

Series [3] is described as follows: Compound stability in rat liver microsomes. It is filed as in vitro ADME. Here is the method: as §1, §2, §3, §4, §5, §6, §7
Setting [4] is: pH 7.4, 0.5 mg protein/mL, NADPH, 37° C.
The mark [5] stands for this setting: pH 7.4, in vivo CLint extrapolated.

As usually defined, the half-life is the time in which the quantity being followed falls by half. As usually defined, the CLint scaled is the capacity of the preparation to metabolise the compound, expressed as a volume cleared per time. As a reminder, the AUC(0-t) is exposure summed from dosing to a finite time, without extrapolation to infinity. Higher therefore signals high exposure.

Turning to `Nc1cc(Oc2ccc(NC(=O)c3c4n(n(-c5ccccc5)c3=O)CCC4)cc2)ccn1` [Ex. 1, N-(4-((2-aminopyridin-4-yl)oxy)phenyl)-2-oxo-1-phenyl-2,4,5,6-tetrahydro-1H-pyrrolo[1,2-b]pyrazole-3-carboxamide], the half-life in series [1] (setting [4]) was 3.13 h; in series [2] (iv dosing, 1 mg/kg), 1.51 h; in series [3] (setting [4]) it was 1.48 h. The CLint scaled in series [1] (setting [5]) was 9.27 mL/min/kg; in series [3] (setting [5]) it was 27.9 mL/min/kg. Moreover, the AUC(0-t) in series [2] (iv dosing, 1 mg/kg) is 1190 ng·h/mL. The Vd in series [2] (iv dosing, 1 mg/kg, read-out: Vss) is 1.2 L/kg. Besides, in series [2] (po, bioavailability (F)), the bioavailability came out at 163%.
